Data on 3 compounds can be found in article PMC9668914, “Understanding VPAC receptor family peptide binding and selectivity” (Nature Communications, 2022).

In test [1] the target is Nluc-PAC1R (UniProt P41586). Nature of the test: FRET or BRET; NanoBRET whole cell competition binding; COS-7 cells with Nluc-PAC1R, 30 nM AF568-PACAP27 and increasing competing peptide added together, 4 °C, BRET buffer (0.1% ovalbumin, 10 mM HEPES, 1x HBSS, pH 7.45); one site fit of log IC50.
The target in test [2] is T1, PAC1R (Homo sapiens, UniProt P41586).
T1 construct: An HA signal peptide was inserted in place of the native signal peptide of the receptors; HA signal peptide (replaces the native signal peptide) (N); 3C protease cleavage sites (between FLAG and receptor, and between receptor and His) (internal); expressed in transfected cells; host or cells: COS-7 (transient, PEI)
T1 sequence (P41586 21-468): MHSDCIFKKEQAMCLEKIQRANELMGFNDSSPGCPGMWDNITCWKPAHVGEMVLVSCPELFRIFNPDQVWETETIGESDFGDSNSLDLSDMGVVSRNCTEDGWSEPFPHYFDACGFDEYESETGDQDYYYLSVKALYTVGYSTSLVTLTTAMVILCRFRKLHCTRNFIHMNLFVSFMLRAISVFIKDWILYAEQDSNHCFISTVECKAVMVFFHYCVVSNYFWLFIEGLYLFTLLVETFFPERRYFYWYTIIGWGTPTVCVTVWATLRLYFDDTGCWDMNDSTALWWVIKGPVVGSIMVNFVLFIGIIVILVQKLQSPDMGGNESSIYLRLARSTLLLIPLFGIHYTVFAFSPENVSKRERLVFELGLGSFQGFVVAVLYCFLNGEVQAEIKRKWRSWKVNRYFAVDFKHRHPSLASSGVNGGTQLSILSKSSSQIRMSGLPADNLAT
The test is described as follows: cAMP accumulation, chimeric peptides (Fig. 5b). It counts as cell-based. Conditions: COS-7, three-parameter logistic, read-out: pEC50, PAC1R cAMP (converted). From the text:
(§1) An HA signal peptide was inserted in place of the native signal peptide of the receptors and a FLAG epitope was incorporated into the receptor N-terminus immediately after the signal peptide. A His tag was fused to C-terminus of the receptor. 3C protease cleavage sites were inserted between both the FLAG and His tags and the receptor. […] The following PAC1R and VPAC1R mutants were also generated using Quikchange mutagenesis: PAC1R C25A, PAC1R C219A, PAC1R C25A/C219A, VPAC1R C37A and VPAC1R C208A. For all PAC1R constructs, we used the PAC1R null (PAC1n) splice variant. A construct containing N-terminal NLuc immediately after the native signal peptide of PAC1R was also generated in pcDNA3.1.
COS-7 cells were used for the chimeric peptide and cysteine mutagenesis pharmacological assays due to their lack of endogenous expression of PAC1R and receptor activity-modifying proteins, reported to potentially heterodimerize with PAC1R and VPAC1R[42]. Cells were cultured in Dulbecco’s Modified Eagle’s Medium (DMEM) (Invitrogen) supplemented with 5% v/v heat-inactivated FBS at 37 °C and […] /5% CO2 in a humidified incubator. COS-7 cells were plated in 10 cm dishes at approximately 1 million cells/dish. Cells were transfected 24 h later, with 5 µg of either WT or mutant PAC1R or VPAC1R receptor DNA. DNA and PEI (in a 1:6 ratio) were each diluted in 150 mM NaCl, and then combined and incubated for 10 min, before the mixture was added to the 10 cm dish. The next day, cells were harvested from the 10 cm dishes using Trypsin-Versene (PBS + 0.5 mM EDTA, pH 7.4), and were seeded at a density of 15,000 cells/well into clear 96-well culture plates and incubated overnight at 37 °C in 5% CO2 for cAMP accumulation assay the next day.
The reaction was terminated after 30 min by aspiration of the buffer and addition of 50 μl of ice-cold ethanol. Upon evaporation of ethanol, 75 μl of lysis buffer (5 mM HEPES, 0.1% (w/v) OVA, 0.3% (w/v) Tween20, pH 7.4) was added to the cells. cAMP detection was performed using a LANCE cAMP Detection Kit (PerkinElmer) for the construct validation and cysteine mutagenesis pharmacological assays and cAMP Gs HiRange kit (Cisbio) for the chimeric peptide pharmacological assays. The plates were read using an EnVision plate reader with excitation at 320 nm and emission at 615 nm[45].
(§2) The pharmacological data in figures and tables are reported as mean + standard error of the mean (SEM) with the number of biological replicates indicated in the figure and table legends where “n” represents the number of biological replicates performed. Concentration-response data were analyzed in GraphPad Prism version 9.4.0 using a three-parameter logistic curve to derive pEC50 values for the cyclic AMP accumulation. Competition binding data were analyzed in GraphPad Prism using the one site—Fit log IC50 model to derive pIC50 values. For the cysteine mutagenesis data, comparisons of multiple different groups were performed using one-way analysis of variance (ANOVA), followed by Dunnett’s post-hoc test with the control group being the WT receptor, with significance accepted at p < 0.05. For the chimeric peptide data, comparisons of multiple different groups were performed using one-way ANOVA, followed by Tukey’s post-hoc test, with significance accepted at p < 0.05.

The target of test [3] is T2, Nluc-PAC1R (Homo sapiens, UniProt P41586).
T2 construct: A construct containing N-terminal NLuc immediately after the native signal peptide of PAC1R was also generated in pcDNA3.1; expressed in transfected cells; host or cells: COS-7 (transient, PEI; whole cells at 4 °C)
T2 sequence (P41586 21-468): T1 sequence (P41586 21-468)
The test is described as follows: NanoBRET competition binding, AF568-PACAP27 probe (Fig. 5c). Conditions: COS-7, 30 nM AF568-PACAP27, 4 °C, read-out: pIC50, PAC1R competition binding (converted).
Description: as §1
Therefore, the lysine residue at position 21 was replaced with a cysteine residue (^21C) for the facile conjugation of fluorophore via thiol-maleimide click reaction. The resulting target peptide ^21C-PACAP27 (Mutant fragment) with amidated C-terminus was synthesized by standard Fmoc-solid phase peptide synthesis method[43] and purified by Reversed-phase high-performance liquid chromatography (RP-HPLC). […] of Alexa Fluor™ 568F was purchased from ThermoFisher Scientific (Catalog number: A20003). The thiol-maleimide conjugation reaction was carried out by our published protocol. […] The molecular weight of the probe was confirmed by Matrix-Assisted Laser Desorption/Ionization Time-of-Flight Mass Spectrometry (MALDI-TOF MS).
COS-7 cells were plated in 10 cm dishes at approximately 1 million cells/dish. Cells were transfected 24 h later, using 3 μg of Nluc-PAC1R DNA using the method described above and then seeded at a density of 15,000 cells per well in white-bottom 96-well culturplates 24 h prior to assay. On the day of the assay, cell culture media was replaced with BRET buffer (0.1% ovalbumin, 10 mM HEPES, 1x HBSS, pH 7.45) and incubated at 4 °C for two hours. […] After 1.5 h, furimazine (10 μM final concentration) was added to each well and the plate incubated for a further 30 min in the dark at 4 °C before reading. Filtered light emissions were measured at 460±40 nm (donor channel) and at 610-LP nm (long pass) (acceptor channel) using a PHERAstar plate reader (BMG Labtech). The raw NanoBRET ratio was calculated by dividing the luminescence from the acceptor channel by the donor channel. Data were expressed as % AF568-PACAP27 BRET signal in the absence of competing ligand.
as §2

The test system of test [4] is GLP-1R. Conditions: cited from earlier work. From the text: In the equivalent position as R ...

Where two headings read alike, the source gives them in different places.

Consider Ala4 PACAP27 (peptide), for which, in test [1], the fold reduction in pIC50 relative to PACAP27 was 30 fold.

For the compound `CC[C@H](C)[C@H](NC(=O)[C@H](CO)NC(=O)[C@H](CC(N)=O)NC(=O)[C@H](CC(C)C)NC(=O)[C@H](Cc1ccc(O)cc1)NC(=O)[C@H](CCCCN)NC(=O)[C@H](CCCCN)NC(=O)[C@@H](NC(=O)[C@H](C)NC(=O)[C@H](CCSC)NC(=O)[C@H](CCC(N)=O)NC(=O)[C@H](CCCCN)NC(=O)[C@H](CCCN=C(N)N)NC(=O)[C@H](CC(C)C)NC(=O)[C@H](CCCN=C(N)N)NC(=O)[C@@H](NC(=O)[C@H](Cc1ccc(O)cc1)NC(=O)[C@H](CC(N)=O)NC(=O)[C@H](CC(=O)O)NC(=O)[C@@H](NC(=O)[C@H](Cc1ccccc1)NC(=O)[C@@H](NC(=O)[C@H](C)NC(=O)[C@H](CC(=O)O)NC(=O)[C@H](CO)NC(=O)[C@@H](N)Cc1c[nH]cn1)C(C)C)[C@@H](C)O)[C@@H](C)O)C(C)C)C(=O)N[C@@H](CC(C)C)C(=O)N[C@@H](CC(N)=O)C(N)=O` [VIP, vasoactive intestinal peptide, reference compound], the EC50 in test [2] (replicate n=1) is 38.5 nM; in test [2] (replicate n=2), 30.9 nM; in test [2] (replicate n=3), 43.3 nM; in test [2] (replicate n=4), 76.4 nM; in test [2] (replicate n=5), 104 nM. The IC50 in test [3] (replicate n=1) was 4500 nM; in test [3] (replicate n=2), 8090 nM; in test [3] (replicate n=3), 12700 nM; in test [3] (replicate n=4) it was 15700 nM; in test [3] (replicate n=5), 7140 nM.

For the compound GLP-1: glucagon-like peptide 1, in test [4], the “GLP-1 affinity with R380 of GLP-1R switched to the VPAC1R residue” value is “reduced GLP-1 affinity” and the “GLP-1 potency for cAMP production at GLP-1R D372A, E373A” value is “reduced GLP-1 potency for cAMP production”.
